Source: patent EP3939664A1 (priority 2020, dated 2022)

Test system: SARS-CoV-2
Experiment: Cell monolayer protection assay (crystal violet staining of virus-induced cell death)
Type: cell-based, SARS-CoV-2 stock strain NL/2020
Set-up: PC Max: unit: uM
Conditions: Figure 1, 0.78-50µM
For CC(C)(C)c1ccc(-c2ccc(-c3cc(C(=O)O)c4ccccc4n3)cc2)cc1 [Example 21, 2-(4'-(tert-butyl)-[1,1'-biphenyl]-4-yl)quinoline-4-carboxylic acid], the “protective activity against SARS-CoV-2 (result in words)” value was “comparable efficacy to remdesivir”.

Same assay, conditions: Severe acute respiratory syndrome coronavirus 2, Vero C1008, minimum compound concentration protecting Vero-E6 cell monolayer from virus induced cell death, 72 hours, dilutions from 50µM to 780nM tested, read-out: PC Min
CCCCc1ccc(-c2ccc3nc(-c4ccc(OC)cc4)cc(C(=O)O)c3c2)cc1 [Example 3, 6-(4-butylphenyl)-2-(4-methoxyphenyl)quinoline-4-carboxylic acid] showed a minimal effective concentration of 50 µM.
COc1ccc(-c2cc(C(=O)O)c3cc(-c4ccc(C(C)(C)C)cc4)ccc3n2)cc1 [Example 4, 6-(4-(tert-butyl)phenyl)-2-(4-methoxyphenyl)quinoline-4-carboxylic acid] showed a minimal effective concentration of 50 µM.
Work on CCc1ccc(-c2ccc3nc(-c4ccccc4)cc(C(=O)O)c3c2)cc1 [Example 12, 6-(4-ethylphenyl)-2-phenylquinoline-4-carboxylic acid] yielded a minimal effective concentration of 50 µM.
CC(C)(C)c1ccc(-c2ccc3nc(-c4ccccc4)cc(C(=O)O)c3c2)cc1 [Example 14, 6-(4-(tert-butyl)phenyl)-2-phenylquinoline-4-carboxylic acid] showed a minimal effective concentration of 50 µM.
In the case of O=C(O)c1cc(-c2ccccc2)nc2ccc(-c3ccc(Cl)c(Cl)c3)cc12 [Example 16, 6-(3,4-dichlorophenyl)-2-phenylquinoline-4-carboxylic acid], the minimal effective concentration is reported as 50 µM.
Compound CCc1ccc(-c2ccc(-c3cc(C(=O)O)c4ccccc4n3)cc2)cc1 [Example 19, 2-(4'-ethyl-[1,1'-biphenyl]-4-yl)quinoline-4-carboxylic acid] has a minimal effective concentration of 50 µM.
CCCCc1ccc(-c2ccc(-c3cc(C(=O)O)c4ccccc4n3)cc2)cc1 [Example 20, 2-(4'-butyl-[1,1'-biphenyl]-4-yl)quinoline-4-carboxylic acid] gave a minimal effective concentration of 12.5 µM.
CC(C)(C)c1ccc(-c2ccc(-c3cc(C(=O)O)c4ccccc4n3)cc2)cc1 [Example 21, 2-(4'-(tert-butyl)-[1,1'-biphenyl]-4-yl)quinoline-4-carboxylic acid] showed a minimal effective concentration of 3.12 µM.
O=C(O)c1cc(-c2ccc(-c3ccc(Cl)c(Cl)c3)cc2)nc2ccccc12 [Example 23, 2-(3',4'-dichloro-[1,1'-biphenyl]-4-yl)quinoline-4-carboxylic acid] showed a minimal effective concentration of 50 µM.
Work on O=C(O)c1cc(-c2ccc(-c3cccc(OC(F)(F)F)c3)cc2)nc2ccccc12 [Example 24, 2-(3'-(trifluoromethoxy)-[1,1'-biphenyl]-4-yl)quinoline-4-carboxylic acid] yielded a minimal effective concentration of 50 µM.
Work on CCCCc1ccc(-c2cccc(-c3cc(C(=O)O)c4ccccc4n3)c2)cc1 [Example 27, 2-(4'-butyl-[1,1'-biphenyl]-3-yl)quinoline-4-carboxylic acid] yielded a minimal effective concentration of 25 µM.
With CC(C)(C)c1ccc(-c2cccc(-c3cc(C(=O)O)c4ccccc4n3)c2)cc1 [Example 28, 2-(4'-(tert-butyl)-[1,1'-biphenyl]-3-yl)quinoline-4-carboxylic acid] the minimal effective concentration was 25 µM.
Work on CCCCc1ccc(-c2ccc3c(C(=O)O)cc(-c4ccc(OC)cc4)nc3c2)cc1 [Example 33, 7-(4-butylphenyl)-2-(4-methoxyphenyl)quinoline-4-carboxylic acid] yielded a minimal effective concentration of 50 µM.
COc1ccc(-c2cc(C(=O)O)c3ccc(-c4ccc(C(C)(C)C)cc4)cc3n2)cc1 [Example 34, 7-(4-(tert-butyl)phenyl)-2-(4-methoxyphenyl)quinoline-4-carboxylic acid] showed a minimal effective concentration of 50 µM.
For CCc1ccc(-c2cccc3c(C(=O)O)cc(-c4ccc(OC)cc4)nc23)cc1 [Example 42, 8-(4-ethylphenyl)-2-(4-methoxyphenyl)quinoline-4-carboxylic acid], the minimal effective concentration was 50 µM.
COc1ccc(-c2cc(C(=O)O)c3cccc(-c4ccc(C(C)(C)C)cc4)c3n2)cc1 [Example 44, 8-(4-(tert-butyl)phenyl)-2-(4-methoxyphenyl)quinoline-4-carboxylic acid] gave a minimal effective concentration of 12.5 µM.
With COc1ccc(-c2cc(C(=O)O)c3cccc(-c4ccc(Cl)c(Cl)c4)c3n2)cc1 [Example 46, 8-(3,4-dichlorophenyl)-2-(4-methoxyphenyl)quinoline-4-carboxylic acid] the minimal effective concentration was 50 µM.
Compound COc1ccc(-c2cc(C(=O)O)c3cccc(-c4cccc(OC(F)(F)F)c4)c3n2)cc1 [Example 47, 2-(4-methoxyphenyl)-8-(3-(trifluoromethoxy)phenyl)quinoline-4-carboxylic acid] has a minimal effective concentration of 50 µM.
CCCOc1ccc(-c2cccc3c(C(=O)O)cc(-c4ccc(OC)cc4)nc23)cc1 [Example 48, 2-(4-methoxyphenyl)-8-(4-propoxyphenyl)quinoline-4-carboxylic acid] showed a minimal effective concentration of 50 µM.
Work on CCC(CC)COC(=O)[C@H](C)N[P@](=O)(OC[C@H]1O[C@@](C#N)(c2ccc3c(N)ncnn23)[C@H](O)[C@@H]1O)Oc1ccccc1 [Remdesevir, remdesivir, reference compound] yielded a minimal effective concentration of 0.78 µM.

Same assay, conditions: maximum compound concentration protecting Vero-E6 cell monolayer from virus induced cell death, 72 hours, dilutions from 50µM to 780nM tested
In the case of CCCCc1ccc(-c2ccc3nc(-c4ccc(OC)cc4)cc(C(=O)O)c3c2)cc1 [Example 3, 6-(4-butylphenyl)-2-(4-methoxyphenyl)quinoline-4-carboxylic acid], the “PC Max” value is reported as 50.
In the case of COc1ccc(-c2cc(C(=O)O)c3cc(-c4ccc(C(C)(C)C)cc4)ccc3n2)cc1 [Example 4, 6-(4-(tert-butyl)phenyl)-2-(4-methoxyphenyl)quinoline-4-carboxylic acid], the “PC Max” value is reported as 50.
In the case of CCc1ccc(-c2ccc3nc(-c4ccccc4)cc(C(=O)O)c3c2)cc1 [Example 12, 6-(4-ethylphenyl)-2-phenylquinoline-4-carboxylic acid], the “PC Max” value is reported as 50.
For CC(C)(C)c1ccc(-c2ccc3nc(-c4ccccc4)cc(C(=O)O)c3c2)cc1 [Example 14, 6-(4-(tert-butyl)phenyl)-2-phenylquinoline-4-carboxylic acid], the “PC Max” value was 50.
In the case of O=C(O)c1cc(-c2ccccc2)nc2ccc(-c3ccc(Cl)c(Cl)c3)cc12 [Example 16, 6-(3,4-dichlorophenyl)-2-phenylquinoline-4-carboxylic acid], the “PC Max” value is reported as 50.
With CCc1ccc(-c2ccc(-c3cc(C(=O)O)c4ccccc4n3)cc2)cc1 [Example 19, 2-(4'-ethyl-[1,1'-biphenyl]-4-yl)quinoline-4-carboxylic acid] the “PC Max” value was 50.
In the case of CCCCc1ccc(-c2ccc(-c3cc(C(=O)O)c4ccccc4n3)cc2)cc1 [Example 20, 2-(4'-butyl-[1,1'-biphenyl]-4-yl)quinoline-4-carboxylic acid], the “PC Max” value is reported as 50.
With CC(C)(C)c1ccc(-c2ccc(-c3cc(C(=O)O)c4ccccc4n3)cc2)cc1 [Example 21, 2-(4'-(tert-butyl)-[1,1'-biphenyl]-4-yl)quinoline-4-carboxylic acid] the “PC Max” value was 50.
In the case of O=C(O)c1cc(-c2ccc(-c3ccc(Cl)c(Cl)c3)cc2)nc2ccccc12 [Example 23, 2-(3',4'-dichloro-[1,1'-biphenyl]-4-yl)quinoline-4-carboxylic acid], the “PC Max” value is reported as 50.
For O=C(O)c1cc(-c2ccc(-c3cccc(OC(F)(F)F)c3)cc2)nc2ccccc12 [Example 24, 2-(3'-(trifluoromethoxy)-[1,1'-biphenyl]-4-yl)quinoline-4-carboxylic acid], the “PC Max” value was 50.
In the case of CCCCc1ccc(-c2cccc(-c3cc(C(=O)O)c4ccccc4n3)c2)cc1 [Example 27, 2-(4'-butyl-[1,1'-biphenyl]-3-yl)quinoline-4-carboxylic acid], the “PC Max” value is reported as 50.
For CC(C)(C)c1ccc(-c2cccc(-c3cc(C(=O)O)c4ccccc4n3)c2)cc1 [Example 28, 2-(4'-(tert-butyl)-[1,1'-biphenyl]-3-yl)quinoline-4-carboxylic acid], the “PC Max” value was 50.
For CCCCc1ccc(-c2ccc3c(C(=O)O)cc(-c4ccc(OC)cc4)nc3c2)cc1 [Example 33, 7-(4-butylphenyl)-2-(4-methoxyphenyl)quinoline-4-carboxylic acid], the “PC Max” value was 50.
In the case of COc1ccc(-c2cc(C(=O)O)c3ccc(-c4ccc(C(C)(C)C)cc4)cc3n2)cc1 [Example 34, 7-(4-(tert-butyl)phenyl)-2-(4-methoxyphenyl)quinoline-4-carboxylic acid], the “PC Max” value is reported as 50.
With CCc1ccc(-c2cccc3c(C(=O)O)cc(-c4ccc(OC)cc4)nc23)cc1 [Example 42, 8-(4-ethylphenyl)-2-(4-methoxyphenyl)quinoline-4-carboxylic acid] the “PC Max” value was 50.
In the case of COc1ccc(-c2cc(C(=O)O)c3cccc(-c4ccc(C(C)(C)C)cc4)c3n2)cc1 [Example 44, 8-(4-(tert-butyl)phenyl)-2-(4-methoxyphenyl)quinoline-4-carboxylic acid], the “PC Max” value is reported as 50.
In the case of COc1ccc(-c2cc(C(=O)O)c3cccc(-c4ccc(Cl)c(Cl)c4)c3n2)cc1 [Example 46, 8-(3,4-dichlorophenyl)-2-(4-methoxyphenyl)quinoline-4-carboxylic acid], the “PC Max” value is reported as 50.
In the case of COc1ccc(-c2cc(C(=O)O)c3cccc(-c4cccc(OC(F)(F)F)c4)c3n2)cc1 [Example 47, 2-(4-methoxyphenyl)-8-(3-(trifluoromethoxy)phenyl)quinoline-4-carboxylic acid], the “PC Max” value is reported as 50.
With CCCOc1ccc(-c2cccc3c(C(=O)O)cc(-c4ccc(OC)cc4)nc23)cc1 [Example 48, 2-(4-methoxyphenyl)-8-(4-propoxyphenyl)quinoline-4-carboxylic acid] the “PC Max” value was 50.
For CCC(CC)COC(=O)[C@H](C)N[P@](=O)(OC[C@H]1O[C@@](C#N)(c2ccc3c(N)ncnn23)[C@H](O)[C@@H]1O)Oc1ccccc1 [Remdesevir, remdesivir, reference compound], the “PC Max” value was 50.

Test system: not listed separately
Experiment: in vitro
Conditions: human, huh7-lunet#3 cells
COc1ccc(-c2cc(C(=O)O)c3cc(-c4ccc(C(C)(C)C)cc4)ccc3n2)cc1 [Example 4, 6-(4-(tert-butyl)phenyl)-2-(4-methoxyphenyl)quinoline-4-carboxylic acid] showed a viability at 72 h, 10 µM of 107%.

Test system: SARS-CoV-2
Experiment: Relative viral RNA content by real time qPCR
Type: cell-based
Conditions: not given
With CCCCc1ccc(-c2ccc(-c3cc(C(=O)O)c4ccccc4n3)cc2)cc1 [Example 20, 2-(4'-butyl-[1,1'-biphenyl]-4-yl)quinoline-4-carboxylic acid] the “viral RNA levels by qPCR (result in words)” value (“viral RNA levels by qPCR” below) was “virtually undetectable levels”.
With CC(C)(C)c1ccc(-c2ccc(-c3cc(C(=O)O)c4ccccc4n3)cc2)cc1 [Example 21, 2-(4'-(tert-butyl)-[1,1'-biphenyl]-4-yl)quinoline-4-carboxylic acid] the “viral RNA levels by qPCR” value was “virtually undetectable levels”.
In the case of COc1ccc(-c2cc(C(=O)O)c3cccc(-c4ccc(C(C)(C)C)cc4)c3n2)cc1 [Example 44, 8-(4-(tert-butyl)phenyl)-2-(4-methoxyphenyl)quinoline-4-carboxylic acid], the “viral RNA levels by qPCR” value is reported as “virtually undetectable levels”.

Same assay, conditions: Severe acute respiratory syndrome coronavirus 2, Vero C1008; 15µM compound; viral RNA by qPCR, relative to cells treated only with vehicle (DMSO)
Compound CCCCc1ccc(-c2ccc(-c3cc(C(=O)O)c4ccccc4n3)cc2)cc1 [Example 20, 2-(4'-butyl-[1,1'-biphenyl]-4-yl)quinoline-4-carboxylic acid] has an activity at 15 µM of 0.001%.
With CC(C)(C)c1ccc(-c2ccc(-c3cc(C(=O)O)c4ccccc4n3)cc2)cc1 [Example 21, 2-(4'-(tert-butyl)-[1,1'-biphenyl]-4-yl)quinoline-4-carboxylic acid] the activity at 15 µM was 1e-05%.
Compound COc1ccc(-c2cc(C(=O)O)c3cccc(-c4ccc(C(C)(C)C)cc4)c3n2)cc1 [Example 44, 8-(4-(tert-butyl)phenyl)-2-(4-methoxyphenyl)quinoline-4-carboxylic acid] has an activity at 15 µM of 0.01%.

Test system: hCoV-229E-GFP virus (Human coronavirus 229E expressing Green Fluorescent Protein)
Experiment: microbe, parasite or virus in culture
Type: cell-based
Conditions: Huh7-Lunet#3 cells, 72 hours at 33°C, read-out: reduction of hCoV-229E-GFP propagation
In the case of COc1ccc(-c2cc(C(=O)O)c3cc(-c4ccc(C(C)(C)C)cc4)ccc3n2)cc1 [Example 4, 6-(4-(tert-butyl)phenyl)-2-(4-methoxyphenyl)quinoline-4-carboxylic acid], the inhibition at 10 µM is reported as 74%.
